Experimental data: patent US9675642B2, “Engineered dendritic cells and uses for the treatment of cancer” (Intrexon Corporation, priority 2007, dated 2017)

Legend:
B16 melanomas = experiment: Ligand route/dose comparison with i.t. DC.SP1-IL12 in B16 melanoma; format: in vivo, B6 mice
Experimental: B16 melanomas were established s.c. for 7 days in the right flanks of syngenic B6 mice. On day 7, 10^6 DC.SP1-IL12 (optimal switch identified in FIG. 10 comparison) were injected intratumorally (i.t.). Activating ligand (RG-115932) was provided either as an injection i.p., via oral gavage in Labrasol, or via drug-containing chow provided ad libitum beginning on the day preceding DC injection (and daily thereafter for 6 days). Each cohort contained 5 animals, with tumor growth monitored every 3-4 days and reported as mean size (mm^2 based on the product of orthogonal measurements). The treatment for each cohort is described below.

B16 melanoma [1] = experiment: DC dose and duration of ligand administration in B16 melanoma; format: in vivo, B6 mice
Experimental: Tumor bearing mice were given a single intratumoral injection of AdDCs at doses of 10^5, 10^6, and 10^7 cells and daily i.p. injection of Activating Ligand at a single dose of 30 mg/kg/day for 6 days or 13 days beginning on the day of the injection of 10^7 cells. […] There was no effect of the Activating Ligand alone (without AdDCs) on tumor growth.
In a similar experiment to FIG. 12, the Activating Ligand was administered by oral gavage for 9 and 12 days. The anti-tumor dose response with an oral formulation of the Activating Ligand at different doses in Labrasol was assessed.
B16 melanomas were established s.c. for 7 days in the right flanks of 5 syngeneic B6 mice. On day 7, DC.SP1-IL-12 (bone marrow derived DC infected at an MOI of 100 using the SP1 optimal switch) were injected intratumorally (i.t.) at doses of 10E5, 10E6 or 10E7. RG-115932 was provided by i.p. injection beginning on the day of DC injection (and daily thereafter for either 6 days or 13 days). Each cohort contained 5 animals, with tumor growth monitored every 3-4 days and reported as mean size (mm squared based on the product of orthogonal measurements). Individual animal weights were also assessed at the time of tumor measurements (FIG. 13). All animals rendered free of disease by any therapy were rechallenged on day 50 (post-initial B16 tumor inoculation) with 10E5 B16 melanoma cells on the opposite flank (left flank) of the original tumor and with 10E5 MC38 colon carcinoma cells on the right flank. Tumor growth was monitored every 3-4 days and compared against growth observed in naïve (untreated) animals (see FIG. 12).

[2] = system: mouse dendritic cells transduced with Ad-RTS-mIL-12; experiment: Activator Drug dose-dependent IL-12 expression in mouse DC transduced with Ad-RTS-mIL-12; format: cell-based; conditions: varying doses of Activator Drug
[3] = system: human dendritic cells transduced with adenoviral vector Ad-RTS-mIL-12; experiment: IL-12 production by human DC transduced with Ad-RTS-mIL-12; format: cell-based; conditions: 3 hour viral adsorption at MOI of 500
Excerpt: The activator drug (“AD” or “activating ligand”) induced IL-12 expression in these transduced human dendritic cells.

RTS = experiment: Activation of the RTS by ligand enantiomer; conditions: R enantiomer versus racemic mixture
Experimental: DC-SP1 i.t. therapy using i.p. administered ligand yielded a clear ligand dose-tumor inhibition response pattern, with optimal anti-tumor effects at ligand doses >30 mg/kg/day. […] 20-22.5 mg/kg/day of the active enantiomer. […] The availability of oral administration of the ligand would ease the burden of the treatment on patients.
The recombinant DNA used as the recombinant adenoviral vector allows the expression of human IL-12 under the control of the RheoSwitch® Therapeutic System (RTS). The RTS comprises a bicistronic message expressed from the human Ubiquitin C promoter and codes for two fusion proteins: Gal4-EcR and VP16-RXR. Gal4-EcR is a fusion between the DNA binding domain (amino acids 1-147) of yeast Gal4 and the DEF domains of the ecdysone receptor from the insect Choristoneura fumiferana. […] VP16-RXR is a fusion between the transcription activation domain of HSV-VP16 and the EF domains of a chimeric RXR derived from human and locust sequences. […]

[4] = system: human and mouse cell lines and primary dendritic cells transduced with recombinant adenoviral vector carrying the genes for IL12; experiment: IL12 induction in cell lines and primary DC transduced with IL12 adenoviral vector; format: cell-based; conditions: in vitro
[5] = system: DC infected with rAd.RheoIL12 (DC.RheoIL12); experiment: IL-12p70 secretion by adenovirus-infected murine BM-derived DC (ELISA); format: cell-based, mouse
Experimental: DCs were generated from murine bone marrow as previously described (Tatsumi et al., 2003). Briefly, wild-type or EGFP Tg mouse BM was cultured in CM supplemented with 1000 units/ml recombinant murine granulocyte/macrophage colony-stimulating factor and recombinant mIL-4 (Peprotech, Rocky Hill, N.J.) at 37° C. in a humidified, 5% CO2 incubator for 7 days. CD11c^+ DC were then isolated using specific MACSTM beads, per the manufacturer's protocol (Miltenyi Biotec, Auburn, Calif.). CD11c^+ DC produced in this manner were >95% pure based on morphology and co-expression of the CD11b, CD40, CD80, and class I and class II MHC antigens.
Day 7 cultured DC were untreated, were infected with recombinant Ads encoding murine IL-12p70 driven off a constitutive (rAd.cIL12) or inducible (rAd.RheoIL12) promoter, or were infected with mock, control vector rAdψ5, over a range of MOIs. At various time points after this (0-48 h), DC were then cultured in the absence or presence of an activating ligand (10-200 μg/ml) for an additional 24 h prior to analysis of IL-12p70 secretion using a specific ELISA kit (BDPharMingen, San Diego, Calif.; lower level of detection=62.5 pg/ml). […] Alternatively, after 48 h, infected DC were harvested and analyzed for phenotype and for production of IL-12p70 using the ELISA kit (BD-PharMingen, San Diego, Calif.), with a lower level of detection of 62.5 pg/ml. […]

B16 melanoma [6] = experiment: Established s.c. B16 melanoma, i.t. DC plus i.p. RG-115830; format: in vivo, C57BL/6 mice; conditions: RG-115830 alone, or DC.RheoIL12 in the absence of RG-115830
Experimental: B6 mice received subcutaneous injection of 1×10^5 B16 melanoma cells in the right flank on day 0. On day 7, tumors reached a size of approximately 20-30 mm^2 and mice were treated with i.t. injections of PBS or 1×10^6 control vs. adenoviral transduced (MOI=100) DC in a total volume of 50 μl of PBS. Mice also received i.p. injections of 200 μg RG-115830 (in 50 μl DMSO) vs. DMSO carrier control that were initiated at 0 h, 24 h or 48 h post-DC administration, as indicated. After initiation, mice received a total of 5 consecutive daily intraperitoneal injections of RG-115830 at this dose. In additional experiments, ligand was administered beginning on the day of DC injection and then terminated 1, 3 or 5 days post-DC injection to discern whether early cessation of IL-12p70 transgene promotion reduced the therapeutic benefits of this approach. In all cases, tumor size was assessed every 3 or 4 days and recorded in mm^2 by determining the product of the largest perpendicular diameters measured by vernier calipers. Data are reported as the average tumor area±SD. All animal cohorts contained 5 mice/group.
B16 melanoma cells (1×10^5) were injected s.c. in the […] flank of syngenic H-2^b B6 mice and allowed to establish. On day 7, mice were randomized into cohorts of 5 animals each, with a mean cohort tumor size of approximately 20-30 mm^2. […]

GL261 gliomas = experiment: Intracranial GL261 glioma survival, i.t. transduced DC plus i.p. RG-115830; format: in vivo, mice; conditions: at 50 days; DC expressing IFN-alpha and IL-12 under RTS, RG-115830 intra-peritoneal
Excerpt: Abbreviations in this figure are as follows: Ad-IFNa is Adenoviral vector constitutively expressing IFN-alpha; Ad-RTS-IFNa is Adenoviral vector encoding IFN-alpha under RTS control; Ad-RTS-IFNa no ligand is Adenoviral vector containing RTS and IFN-alpha where no activator ligand was present; Ad-IFNa/IL-12 corresponds to DC transduced with Adenoviral vectors encoding IFN-alpha and IL-12; and Ad-RTS-IFNa/IL-12 corresponds to DC transduced with two Adenoviral vectors encoding IFN-alpha and IL-12 under RTS control.
In this example, dendritic cells were isolated from bone marrow, transduced with the Adenoviral constructs depicted in FIG. 7, and mice bearing syngeneic intracranial GL261 gliomas were intratumorally injected with engineered dendritic cells; and RG-115830 was injected intra-peritoneal. […] The data reveal that ligand induced expression of IFN-alpha and IL-12 through activation of the RTS with RG-115830 ligand promoted 75 percent survival at 50 days of GL261 glioma mice; as compared to IFN-alpha expression alone. Furthermore, the control provided by the RheoSwitch and ligand promoted enhanced survival.

CCC[C@@H](N(NC(=O)c1cccc(OC)c1CC)C(=O)c1cc(C)cc(C)c1)C(C)(C)C [RG-115932, (R)-3,5-Dimethyl-benzoic acid N-(1-tert-butyl-butyl)-N′-(2-ethyl-3-methoxy-benzoyl)-hydrazide]
efficacy by route of ligand administration (B16 melanomas; DC-SP1 i.t. therapy, ligand 30 mg/kg/day): equally effective if ligand is administered by i.p. injection, oral gavage, or diet admix
ligand dose giving optimal anti-tumor effects (B16 melanomas; DC-SP1 i.t. therapy, ligand i.p.): > 30 mg/kg/day
efficacy by route in mouse melanoma model (B16 melanomas; DCs transduced with murine IL-12 under RTS): effective in intraperitoneal and oral routes
B16 tumor growth, ligand alone (B16 melanomas; no DC, any dose or any route): had no impact on B16 tumor growth
tumor regression (B16 melanoma [1]; 13 days in a row with 10^7 dendritic cells): effective in causing tumor regression over a 25 day period
suppression of tumor growth, 13 days instead of 6 days of ligand (B16 melanoma [1]; i.p. 30 mg/kg/day with AdDCs): significantly more robust suppression of tumor growth
anti-tumor dose response, oral ligand (B16 melanoma [1]; oral gavage in Labrasol for 9 and 12 days): dose dependent anti-tumor effect
oral dose with the greatest responses (B16 melanoma [1]; orally for 12 days, Labrasol): 50 mg/kg/day
tumor growth, ligand alone (B16 melanoma [1]; without AdDCs): no effect
IL-12 production [2]: produced IL-12 in a dose dependent manner
IL-12 expression [3]: induced IL-12 expression in these transduced human DCs
activation of the RTS (RTS): capable of activating the RTS
IL12 expression [4]: induction of IL12 expression in response to the activator drug in a dose dependent way

CCCC(N(NC(=O)c1cccc(OC)c1CC)C(=O)c1cc(C)cc(C)c1)C(C)(C)C (centres unmarked) [RG-115830, 3,5-Dimethyl-benzoic acid N-(1-tert-butyl-butyl)-N′-(2-ethyl-3-methoxy-benzoyl)-hydrazide]
RG-115830 concentration for optimal infected DC production of IL-12p70 ([5]; MOI of 100): 50 to 200 µg/mL
IL-12p70 production after delayed provision of RG-115830 ([5]; delayed for up to 48 h compared to 0 h timepoint): did not result in any significantly reduced production of IL-12p70
therapeutic benefit (B16 melanoma [6]): failed to yield any therapeutic benefit
survival (GL261 gliomas): 75%
